From patent US12098145B2 (Libra Therapeutics, Inc., priority 2022, dated 2024)

Molecular target: T1, TRPML1 (Homo sapiens, UniProt Q9GZU1)
T1 construct: expressed in transfected cells; host or cells: HEK T-REx cells stably expressing GCaMP6f and TRPML1
Experiment: Cellular TRPML1 assay (FLIPR, GCaMP6f calcium read-out)
Assay type: cell-based
Conditions: HEKT-REx/GCaMP6f/TRPML1 cells, FLIPR TETRA, kinetic response over 300 seconds; read-out: TRPML1 FLIPR pEC50 (converted)
Outline: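 HEK T-REx cells stably expressing TRPML1 and GCaMP6f, seeded 24 h before in Optimem + 0.5% FBS. After ~10 min pre-incubation at room temperature, compounds in Ca2+-free Tyrode's buffer were injected on FLIPR Tetra (final DMSO 0.5%). Calcium fluorescence kinetics followed for 300 s.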

T1 sequence (Q9GZU1 whole entry): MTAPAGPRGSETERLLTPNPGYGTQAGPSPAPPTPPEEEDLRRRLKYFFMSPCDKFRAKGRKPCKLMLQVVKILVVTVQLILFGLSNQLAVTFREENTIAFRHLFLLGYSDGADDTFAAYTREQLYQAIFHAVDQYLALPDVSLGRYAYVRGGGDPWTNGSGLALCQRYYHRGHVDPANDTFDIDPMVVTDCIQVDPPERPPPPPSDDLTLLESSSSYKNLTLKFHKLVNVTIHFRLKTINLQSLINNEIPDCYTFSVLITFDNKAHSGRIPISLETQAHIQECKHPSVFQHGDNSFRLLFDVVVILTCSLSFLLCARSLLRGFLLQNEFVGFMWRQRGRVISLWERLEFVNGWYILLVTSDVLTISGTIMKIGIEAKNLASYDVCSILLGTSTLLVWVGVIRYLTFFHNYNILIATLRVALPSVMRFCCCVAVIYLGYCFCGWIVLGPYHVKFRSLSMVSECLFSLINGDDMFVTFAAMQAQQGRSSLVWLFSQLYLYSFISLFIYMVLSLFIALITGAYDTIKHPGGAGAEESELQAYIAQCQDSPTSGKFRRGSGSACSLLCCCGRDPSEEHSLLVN

Row | Structure (SMILES) | EC50 [nM]
1 | O=C(Nc1ccc(OC2COCC2(F)F)c(F)c1)c1nc(N2CCCC2)oc1CC(F)(F)F (racemic) [Example 71, N-(4-((4,4-difluorotetrahydrofuran-3-yl)oxy)-3-fluorophenyl)-2-(pyrrolidin-1-yl)-5-(2,2,2-trifluoroethyl)oxazole-4-carboxamide] | 10 to 1000
2 | O=C(Nc1ccc(OC2CCCC2(F)F)c(F)c1)c1nc(N2CCC(CO)C2)oc1CC(F)(F)F (stereo not shown) [Example 3, N-(4-((2,2-difluorocyclopentyl)oxy)-3-fluorophenyl)-2-(3-(hydroxymethyl)pyrrolidin-1-yl)-5-(2,2,2-trifluoroethyl)oxazole-4-carboxamide] | 1000 to 10000
3 | CC1(C)CN(c2nc(C(=O)Nc3ccc(OC4CCCC4(F)F)c(F)c3)c(CC(F)(F)F)o2)CCO1 (stereo not shown) [Example 4, N-{4-[(2,2-difluorocyclopentyl)oxy]-3-fluorophenyl}-2-(2,2-dimethylmorpholin-4-yl)-5-(2,2,2-trifluoroethyl)-1,3-oxazole-4-carboxamide] | 1000 to 10000
4 | O=C(Nc1ccc(OC2CCCC2(F)F)c(F)c1)c1nc(N2CCOCC2)oc1CC(F)(F)F (stereo not shown) [Example 6, N-(4-((2,2-difluorocyclopentyl)oxy)-3-fluorophenyl)-2-morpholino-5-(2,2,2-trifluoroethyl)oxazole-4-carboxamide] | 1000 to 10000
5 | CCC1(CC)CN(c2nc(C(=O)Nc3cc(C)c(O[C@@H]4C[C@@H]5C[C@@H]5C4)c(F)c3)c(CN3CCC3)o2)C1 [Example 297, 5-(azetidin-1-ylmethyl)-N-(4-(cis-bicyclo[3.1.0]hexan-3-yloxy)-3-fluoro-5-methylphenyl)-2-(3,3-diethylazetidin-1-yl)oxazole-4-carboxamide] | 1000 to 10000

Further lines, results first:

Row | EC50 [nM] | Structure (SMILES)
6 | 1000 to 10000 | CCC1(CC)CN(c2nc(C(=O)Nc3cc(C)c(O[C@@H]4C[C@@H]5C[C@@H]5C4)c(F)c3)c(CN3CCCC3)o2)C1 [Example 298, N-(4-(cis-bicyclo[3.1.0]hexan-3-yloxy)-3-fluoro-5-methylphenyl)-2-(3,3-diethylazetidin-1-yl)-5-(pyrrolidin-1-ylmethyl)oxazole-4-carboxamide]
7 | 1000 to 10000 | CCC1(CC)CN(c2nc(C(=O)Nc3cc(F)c(O[C@@H]4C[C@@H]5C[C@@H]5C4)c(F)c3)c(CN3CCC3)o2)C1 [Example 300, 5-(azetidin-1-ylmethyl)-N-(4-(cis-bicyclo[3.1.0]hexan-3-yloxy)-3,5-difluorophenyl)-2-(3,3-diethylazetidin-1-yl)oxazole-4-carboxamide]
8 | 1000 to 10000 | CCC1(CC)CN(c2nc(C(=O)Nc3cc(F)c(O[C@@H]4C[C@@H]5C[C@@H]5C4)c(F)c3)c(CN(C)C)o2)C1 [Example 301, N-(4-(cis-bicyclo[3.1.0]hexan-3-yloxy)-3,5-difluorophenyl)-2-(3,3-diethylazetidin-1-yl)-5-((dimethylamino)methyl)oxazole-4-carboxamide]
9 | 1000 to 10000 | Cc1cc(NC(=O)c2nc(N3CCCC3)oc2CN2CCC2)cc(F)c1O[C@@H]1C[C@@H]2C[C@@H]2C1 [Example 305, 5-(azetidin-1-ylmethyl)-N-(4-(cis-bicyclo[3.1.0]hexan-3-yloxy)-3-fluoro-5-methylphenyl)-2-(pyrrolidin-1-yl)oxazole-4-carboxamide]
10 | 1000 to 10000 | O=C(Nc1cc(F)c(O[C@@H]2C[C@@H]3C[C@@H]3C2)c(F)c1)c1nc(N2CCCC2)oc1CN1CCC1 [Example 306, 5-(azetidin-1-ylmethyl)-N-(4-(cis-bicyclo[3.1.0]hexan-3-yloxy)-3,5-difluorophenyl)-2-(pyrrolidin-1-yl)oxazole-4-carboxamide]
11 | 1000 to 10000 | CCC1(CC)CN(c2nc(C(=O)Nc3cc(C)c4c(c3)CCN4C3CC4CC4C3)c(CC(F)(F)F)o2)C1 (stereo not shown) [Example 310, N-(1-(bicyclo[3.1.0]hexan-3-yl)-7-methylindolin-5-yl)-2-(3,3-diethylazetidin-1-yl)-5-(2,2,2-trifluoroethyl)oxazole-4-carboxamide]
12 | 1000 to 10000 | CCC1(CC)CN(c2nc(C(=O)Nc3cc(F)c4c(c3)CCN4C3CC4CC4C3)c(CC(F)(F)F)o2)C1 (stereo not shown) [Example 311, N-(1-(bicyclo[3.1.0]hexan-3-yl)-7-fluoroindolin-5-yl)-2-(3,3-diethylazetidin-1-yl)-5-(2,2,2-trifluoroethyl)oxazole-4-carboxamide]
13 | 1000 to 10000 | COC1(C)CN(c2nc(C(=O)Nc3cc(F)c4c(c3)CCN4C3CC4CC4C3)c(CC(F)(F)F)o2)C1 (stereo not shown) [Example 312, N-(1-(bicyclo[3.1.0]hexan-3-yl)-7-fluoroindolin-5-yl)-2-(3-methoxy-3-methylazetidin-1-yl)-5-(2,2,2-trifluoroethyl)oxazole-4-carboxamide]
14 | 1000 to 10000 | CCC1(OC)CN(c2nc(C(=O)Nc3cc(F)c4c(c3)CCN4C3CC4CC4C3)c(CC(F)(F)F)o2)C1 (stereo not shown) [Example 313, N-(1-(bicyclo[3.1.0]hexan-3-yl)-7-fluoroindolin-5-yl)-2-(3-ethyl-3-methoxyazetidin-1-yl)-5-(2,2,2-trifluoroethyl)oxazole-4-carboxamide]
15 | 1000 to 10000 | O=C(Nc1cc(F)c2c(c1)CCN2C1CC2CC2C1)c1nc(N2CCC3(COC3)C2)oc1CC(F)(F)F (stereo not shown) [Example 314, N-(1-(bicyclo[3.1.0]hexan-3-yl)-7-fluoroindolin-5-yl)-2-(2-oxa-6-azaspiro[3.4]octan-6-yl)-5-(2,2,2-trifluoroethyl)oxazole-4-carboxamide]

Test system: TFEB
Experiment: TFEB translocation assay (TFEB reporter in U2OS cells, imaging)
Assay type: cell-based
Conditions: Homo sapiens; U2OS cell line with TFEB reporter, 2 hours incubation, nucleus to cytoplasm ratio, normalized to Torin-1; read-out: TFEB Translocation pEC50 (converted)
Method: Example B: TFEB Translocation Assay
Reporter TFEB: the reporter is fused to a sequence of monomeric red fluorescent protein.
The reporter TFEB have been stably expressed in U2OS cell line and used as read-out.
Experiments were performed in 384 MTP well format. Cells were seeded in 384-w at a density of 4000 cells/well in 20 μl/well complete growth medium without antibiotics. Twenty-four hours later, cells were treated with compounds and incubated for further 2 hours. Then the cells were imaged and assayed for the response to various compounds using the reporter for TFEB expressed in the cells as readout.
The experiments were performed in a 384-well format according to the following procedure: • 24 h after seeding, cell culture medium was carefully removed and replaced with 20 μl of Opti-MEM (30′ incubation at 37° C. before compound addition) • Then, cells were incubated with compounds diluted in Opti-MEM+0.015% Tween 80 at the desired concentration, with the reference molecule (agonist) Torin-1 at a top concentration of 1 μM (max signal), and with the other reference molecule (agonist) MLSA-5 at top concentration of 20 μM for 2 hours at 37° C. and 5% CO2. The final percentage of DMSO was 0.5% in all the conditions. • Staining of the nuclei was obtained by incubating the cells with 24 μM/well of Hoechst 3342 in standard Tyrode's buffer for 15 min at RT • Then the cells were fixed with PFA 4% for 30 min at RT • After three washes with standard Tyrode's buffer, samples were acquired by recording two fluorescence emission channels (DS-red and blue) at 20× magnification and with at least 3 fields of view per well in an Operetta CLS microscope (PerkinElmer). • Image analysis was performed by using Harmony software (PerkinElmer). The image analysis involved the following steps: flat-field illumination correction, nuclei segmentation, cytoplasm segmentation and calculation of intensity fluorescence in the cytosol and nuclei compartments. Measurements of signal intensity ratio (nucleus to cytoplasm) was used to obtain information on the effects of compounds on the TFEB translocation. • Data from image analysis measurements were finally loaded and analyzed for normalization and fitting procedures in Genedata Screener© software. Data Analysis
Feature: Mean translocation ratio (mean/well)
Data normalization: Stimulator—Neutral control
The GeneData Screener method we have used, normalizes the median of the Stimulator control wells (Torin-1) to 100% and the median of the Neutral control wells (DMSO) to 0% Activity[%]=100*(x−<Min>)/(<“Max”>−<Min>)

Row | Structure (SMILES) | EC50 [nM]
16 | O=C(Nc1ccc(OC2COCC2(F)F)c(F)c1)c1nc(N2CCCC2)oc1CC(F)(F)F (racemic) [Example 71, N-(4-((4,4-difluorotetrahydrofuran-3-yl)oxy)-3-fluorophenyl)-2-(pyrrolidin-1-yl)-5-(2,2,2-trifluoroethyl)oxazole-4-carboxamide] | 10 to 1000
17 | O=C(Nc1ccc(OC2CCCC2(F)F)c(F)c1)c1nc(N2CCC(CO)C2)oc1CC(F)(F)F (stereo not shown) [Example 3, N-(4-((2,2-difluorocyclopentyl)oxy)-3-fluorophenyl)-2-(3-(hydroxymethyl)pyrrolidin-1-yl)-5-(2,2,2-trifluoroethyl)oxazole-4-carboxamide] | 1000 to 10000
18 | CC1(C)CN(c2nc(C(=O)Nc3ccc(OC4CCCC4(F)F)c(F)c3)c(CC(F)(F)F)o2)CCO1 (stereo not shown) [Example 4, N-{4-[(2,2-difluorocyclopentyl)oxy]-3-fluorophenyl}-2-(2,2-dimethylmorpholin-4-yl)-5-(2,2,2-trifluoroethyl)-1,3-oxazole-4-carboxamide] | 10 to 1000
19 | O=C(Nc1ccc(OC2CCCC2(F)F)c(F)c1)c1nc(N2CCOCC2)oc1CC(F)(F)F (stereo not shown) [Example 6, N-(4-((2,2-difluorocyclopentyl)oxy)-3-fluorophenyl)-2-morpholino-5-(2,2,2-trifluoroethyl)oxazole-4-carboxamide] | 10 to 1000
20 | O=C(Nc1cc(F)c(OC2CC3C[C@@H]3C2)c(F)c1)c1nc(N2CC3(CCOCC3)C2)oc1CC(F)(F)F (stereo partly drawn) [Example 188, N-(4-(cis-bicyclo[3.1.0]hexan-3-yloxy)-3,5-difluorophenyl)-2-(7-oxa-2-azaspiro[3.5]nonan-2-yl)-5-(2,2,2-trifluoroethyl)oxazole-4-carboxamide] | 10 to 1000
21 | O=C(Nc1cc(F)c(OC2CC3C[C@H]3C2)c(F)c1)c1nc(N2CC3(CCOC3)C2)oc1CC(F)(F)F (stereo partly drawn) [Example 189, N-(4-(cis-bicyclo[3.1.0]hexan-3-yloxy)-3,5-difluorophenyl)-2-(6-oxa-2-azaspiro[3.4]octan-2-yl)-5-(2,2,2-trifluoroethyl)oxazole-4-carboxamide] | 10 to 1000
22 | CCc1oc(N2CC(CC)(CO)C2)nc1C(=O)Nc1cc(F)c(OC2CC3C[C@H]3C2)c(Cl)c1 (stereo partly drawn) [Example 220, N-(4-(cis-bicyclo[3.1.0]hexan-3-yloxy)-3-chloro-5-fluorophenyl)-5-ethyl-2-(3-ethyl-3-(hydroxymethyl)azetidin-1-yl)oxazole-4-carboxamide] | 10 to 1000
23 | CCc1oc(N2CCCC2)nc1C(=O)Nc1cc(F)c(OC2CC3C[C@H]3C2)c(Cl)c1 (stereo partly drawn) [Example 222, N-(4-(cis-bicyclo[3.1.0]hexan-3-yloxy)-3-chloro-5-fluorophenyl)-5-ethyl-2-(pyrrolidin-1-yl)oxazole-4-carboxamide] | 10 to 1000
24 | CCc1oc(N2CC(C)(OC)C2)nc1C(=O)Nc1cc(C)c(OC2CC3C[C@H]3C2)c(F)c1 (stereo partly drawn) [Example 226, N-(4-(cis-bicyclo[3.1.0]hexan-3-yloxy)-3-fluoro-5-methylphenyl)-5-ethyl-2-(3-methoxy-3-methylazetidin-1-yl)oxazole-4-carboxamide] | 10 to 1000
25 | CCCc1oc(N2CCCC2)nc1C(=O)Nc1cc(F)c(OC2CC3C[C@H]3C2)c(F)c1 (stereo partly drawn) [Example 274, N-(4-(cis-bicyclo[3.1.0]hexan-3-yloxy)-3,5-difluorophenyl)-5-propyl-2-(pyrrolidin-1-yl)oxazole-4-carboxamide] | 10 to 1000
